From doi:10.1101/2025.11.04.686469, “Discovery of Host-Directed Small Molecules with Broad Anti-Leishmanial Efficacy” (bioRxiv, 2025)
In brackets after ≈: the same amount, converted by molar mass. Read-outs that look alike come from different tables or passages of the source.

What was measured:
[1] = tested on: extracellular L. donovani promastigotes; experiment: Effect of compounds on promastigote viability (resazurin assay); assay type: cell-based, Leishmania donovani; conditions: for MIC50: Leishmania donovani, 72-hour incubation
Experimental: The effect of compounds on extracellular promastigotes was evaluated using a resazurin-based assay as described previously. In short, late log phase Leishmania promastigotes were seeded in a 96 well plate at 1 x 10^5 parasites per well and treated with drugs (0.5 – 200 μM) for 72 hours at 25°C. Ten microliters of resazurin (0.02% w/v) were added to the treated parasites to achieve a final concentration of 0.002% w/v and incubated for 24 hours. Viability of the promastigotes was assessed by fluorescence (excitation 544 nm, emission 590 nm, SpectraMax M2, Molecular Devices).

[2] = tested on: intracellular L. donovani amastigotes; experiment: Image-based (Giemsa staining) evaluation of intracellular anti-leishmanial activity in bone marrow derived macrophages; assay type: cell-based, Leishmania donovani; conditions: Leishmania donovani, Macrophage
Experimental: Bone marrow derived macrophages (BMDMs) were isolated from BALB/c mice and cultured as previously described. […] Completely differentiated BMDMs are obtained after 7 days of culture with media change every 2 days. Harvested cells were seeded onto 10 mm glass cover slips at 5 x 10^5 cells/ well of a 24 well plate in DMEM media (without LCM) and allowed to adhere overnight. […] After infection, cells were washed three times with fresh media to remove extracellular promastigotes and treated with compounds for a 72-hour incubation. BMDM cells were then washed with phosphate buffered saline, fixed with ice-cold methanol, and stained with Giemsa (5% v/v in water). The cover slips with stained cells are mounted onto glass slides and imaged on EVOS XL (100X, Thermo Fisher Scientific). Leishmania amastigotes per 100 macrophages were determined in a blinded manner.

[3] = tested on: intracellular L. donovani in WT and Lys K/O BMDMs; experiment: 197 target validation: Giemsa staining in BMDMs from wild-type and lysozyme knockout mice; assay type: cell-based, Leishmania donovani; conditions: WT vs Lys K/O BMDMs
Text: B6.129P2-Lyz2^tm1(cre)Ifo/J mice[23] (stock #004781, herein termed ‘Lys K/O’) were obtained from Jackson Laboratory. This strain has a nuclear-localized Cre recombinase inserted into the first coding ATG of the lysozyme 2 gene (Lyz2) which eliminates endogenous Lyz2 gene function. Wildtype C57BL6/J mice (stock #000664) were obtained as a control.
Bone marrow derived macrophages (BMDMs) were isolated from both mice and cultured as described above in “Image-based Evaluation of Intracellular Anti-Leishmanial Activity”. BMDMs were seeded onto glass cover slips, infected with LV82 L. donovani at a multiplicity of infection of 1:10. Cells were washed to remove extracellular promastigotes and treated with compounds (197, amphotericin B) for a 72-hour incubation. BMDM cells were then washed with phosphate buffered saline, fixed with ice-cold methanol, and stained with Giemsa (5% v/v in water). The cover slips with stained cells are mounted onto glass slides and imaged on EVOS XL (100X, Thermo Fisher Scientific). Leishmania amastigotes per 100 macrophages were determined in a blinded manner.

[4] = target: T1, lysozyme (Homo sapiens, UniProt P61626); experiment: Affinity capture with 197-bead in Leishmania infected macrophage lysate; assay type: binding; conditions: 197-bead vs control bead
T1 construct: endogenous in cells; host or cells: THP-1 cells differentiated with PMA and infected with L. mexicana promastigotes; cell lysate
T1 sequence (P61626 19-148): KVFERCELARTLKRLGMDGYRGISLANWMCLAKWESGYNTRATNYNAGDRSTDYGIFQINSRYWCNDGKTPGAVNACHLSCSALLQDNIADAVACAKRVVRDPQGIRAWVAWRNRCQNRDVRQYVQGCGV
Experimental: To generate cell lysate, ten million THP-1 cells were plated overnight in a 10cm dish, then differentiated with 150 nM phorbol 12-myristate 13-acetate (PMA) for 72 hours. The resulting macrophages were infected with L. mexicana promastigotes at a multiplicity of infection of 1:10 and incubated for 18 hours. After infection, cells were washed three times with PBS to remove extracellular promastigotes. Cells were then collected by scraping and pelleted with centrifugation. The cell pellet was resuspended in cell buffer (50mM Tris-HCl, 150mM NaCl, 2mM EDTA, 0.5% triton-x-100) and subjected to five freeze-thaw cycles. Samples were centrifuged 14,000g x 10 minutes to remove cellular debris. Protein concentration of supernatant was determined by BCA assay and cell lysate was stored at −80°C until further use.
Functionalized agarose beads were made as follows. NHS activated agarose beads were washed three times to remove acetone and resuspended in PBS to create a slurry. 494 (197 with ligation chemical handle) was prepared in 0.3 mL at 25mM in DMSO and 1.7 mL PBS was added to 1 mL of agarose slurry for a final volume of 3 mL at a concentration of 2.5mM (10% v/v DMSO). […]
500 μg cell lysate was incubated with 200 μL slurry at a final volume of 1 mL for 1 hr. […] Peptides were extracted, acidified, desalted using C18 spin columns, and analyzed by LC-MS/MS using Thermo Easy nLC 1200-QExactive HF. […]

For `O=C(CNCc1cccc(F)c1)Nc1ccc(-n2cc(C(F)(F)F)nc2-c2ccc(-c3ccc(C(F)(F)F)cc3)cc2)cc1` [Compound 197], the MIC50 ([1]; resazurin assay (Table 3), read-out: L. donovani Extracellular promastigotes MIC50) was 6.4 µM (≈ 3.92 µg/mL), the MIC50 ([1]; resazurin assay, read-out: Extracellular L. donovani promastigotes MIC50) was 6.4 µM (≈ 3.92 µg/mL) and the “direct effect on extracellular promastigote viability” value ([1]; resazurin assay, strain not named for 53, L. donovani for 197) was “some direct reduction”. The IC50 ([2]; 72 h, Giemsa staining, 72-hour incubation, read-out: Intracellular L. donovani amastigotes IC50) was 1100 nM, the IC50 ([2]; Giemsa staining (Table 3), read-out: L. donovani Intracellular amastigotes IC50) was < 2000 nM and the “anti-leishmanial activity in Lys K/O BMDMs” value [3] was “notably decreased”. The “affinity capture abundance of lysozyme, Log2 fold change” value [4] was 6.57.
